Columns and labels:
avascular tissue = assay: Regeneration of avascular tissue upon direct administration; conditions: for regeneration on administration: non-HMG-CoA reductase inhibitor metabolites
BMP-2 = conditions: non-HMG-CoA reductase inhibitor metabolites
[1] = tested on: BMP-2 mRNA expression in rat NP cells; assay: BMP-2 mRNA expression in rat NP cells cultured in alginate beads (RT-qPCR); format: cell-based; conditions: for BMP-2 mRNA expression with a GGTase inhibitor, level compared with SV: single GGTase inhibitor
From the text: Data are normalized with GAPDH and are expressed as ratio to vehicle (DMSO).
Findings from the investigation on SV stimulating endogenous BMP-2 expression in the treated NP cells, which in turn increases chondrogenic phenotype expression (aggrecan and type II collagen mRNA expression as well as sGAG content), were consistent with the above observations, validating that the small molecule is as efficacious in promoting chondrogenesis as to osteogenesis. […] SV has been prescribed widely for the treatment of hypercholesterolaemia and hypertriglyceridaemia. In humans, it undergoes rapid metabolism to form four major oxidative, NADPH-dependent metabolites, 3′-hydroxy SV (hSV), 6′-exomethylene SV (eSV), 3′,5′-dihydrodiol SV (dSV), and SVA (FIG. 5). […] This raised the question as to whether SVA is dominant in the entire scheme of BMP-2 upregulation. To test whether the levels of induced-BMP-2 by both SV and SVA, respectively, would be any different, the present investigators used the in vitro model system developed in the prior study to conduct the test. Rat NP cells harvested from tail discs were cultured initially in monolayer and then in alginate beads (Zhang H. et al. Spine, 2008; 33(16), the entire disclosure of which is incorporated herein by reference). Cells were treated with DMSO (vehicle), SV or SVA at 1 or 3 μM. Cells were then collected at pre-determined time points and with RNA extracted. Gene expression was analyzed by RT-qPCR. […] The BMP-2 level induced in the SVA group was 5-6 times higher than that in the SV one (FIG. 1A).
The classic mechanism understood for cholesterol lowering by statins is that statins act by competitively inhibiting HMG-CoA reductase, the first committed enzyme of the mevalonate (MVA) pathway. This competition reduces the rate by which HMG-CoA reductase is able to produce MVA, the next molecule in the cascade for the synthesis of prenylation enzyme substrates FPP and GGPP that eventually help produce cholesterol. As indicated previous studies by the inventors (Zhang H. N., Lin C. Y. Spine. 2008; 33(16), fully incorporated herein by reference), when SV was present, BMP-2 mRNA expression of NP cells always responded in a time and dose-dependent manner.

mevalonate conversion = assay: Inhibition of mevalonate conversion; format: biochemical

Compound | regeneration on administration (avascular tissue) | effect on BMP-2 upregulation (BMP-2) | BMP-2 mRNA expression with a GGTase inhibitor, level compared with SV [1] | other results
3′-hydroxy simvastatin [hSV] | promoted a degree of regeneration | also affect BMP-2 upregulation |  | 
CCC(C)(C)C(=O)O[C@H]1C[C@@H](C)C=C2C=C[C@H](C)[C@H](CC[C@@H](O)C[C@@H](O)CC(=O)O)[C@H]21 [SVA, simvastatin beta-hydroxy acid] |  |  |  | mRNA expression of BMP-2 in cells treated with SVA compared to cells treated with SV ([1]; 1 μM, Day 1 to 3, rat NP cells): the same or doubled; BMP-2 level induced in the SVA group relative to the SV group ([1]; 1 μM, Day 7, rat NP cells): 5-6 times; difference in BMP-2 level between SVA and SV ([1]; 3 μM, rat NP cells): further augmented; inhibition of mevalonate conversion compared with SV (mevalonate conversion): more efficiently than SV; anabolic effect relative to SV alone (avascular tissue; regeneration of avascular tissue upon direct administration): 5-6 times
CCC(C)(C)C(=O)OC1CC(C)C(O)C2=CC(O)C(C)C(CCC3CC(O)CC(=O)O3)C21 (centres unmarked) [dSV, 3′,5′-dihydrodiol simvastatin] | promoted a degree of regeneration | also affect BMP-2 upregulation |  | 
COC(=O)[C@H](CC(C)C)NC(=O)c1ccc(NC[C@@H](N)CS)cc1-c1ccccc1 [GGTI-286, reference compound] |  |  | able to increase BMP-2 mRNA expression, but the level was much lower than that found with SV | 
C=C(C)[C@@H]1CC=C(CO)CC1 [POH, reference compound] |  |  | able to increase BMP-2 mRNA expression, but the level was much lower than that found with SV | 

— patent publication US12357606B2, “Compositions and methods for treating defects in avascular cartilaginous tissue by directly administering one or more metabolites of simvastatin” (University of Cincinnati, priority 2017, dated 2025)
